Tested on: chronic sinusitis
Assay: Patient Case 1: self-reported Health Related Quality of Life Scale and symptoms
Assay type: in vivo, human
Details: treatments before the invention regime
Text: Person in good health, whose daily med profile includes • Taking one statin generic drug daily • Taking one over the counter multiple vitamin daily • On average two medical exams each year • No diagnosed medical conditions or concerns
Symptoms—blocked nasal passages especially on the right side of the face, continuous hardened yellow translucent pus discharge from right nostril, minor periodic bleeding, nasal sound quality of voice, a propensity for cold virus to linger and a whistle sound while breathing through the nostrils.
The Kaiser treatment program consisted of a saline rinse bulb and recommendation of daily saline sinus rinsing along with a nasal steroid spray available over the counter. […] The patient continued occasional use of the regimen over the following 15 years with no noticeable improvement.
Treatment began on Mar. 9, 2016 with a new and unique product. The formulation used is Composition 1 in the Formulation Example.
Initial treatment was for 14 days, one dose daily in each nostril, approximately ¼ ounce (7.3 milliliters) administered with a nose dropper while the patient was lying down with chin inclined upward—sometimes with head over the edge of bed or pillow to increase the incline of the forehead to be lower than the chin. The patient remained unmoving for five minutes with no blowing of the nose to allow gravity saturation to reach the deep passages. […]

CC1(C)S[C@@H]2[C@H](NC(=O)[C@H](N)c3ccc(O)cc3)C(=O)N2[C@H]1C(=O)O [amoxicillin]
relief of sinusitis symptoms under earlier treatments: no relief from the sinusitis
